Key:
recombinant Caspase-5 = biological target: T1, recombinant Caspase-5 (Homo sapiens, UniProt P51878); experiment: Caspase Inhibitor Drug Screening Kit (BioVision), WEHD-AFC substrate; type: biochemical; settings: not active site titrated
T1 construct: purchased BioVision
Description: The half-maximal inhibitory concentrations (IC50) for NWL inhibitors (Patent publication # WO/2009/140765, WO/2010/133000, and WO/2012/140500) was determined by incubating 0 to 20 μM NWL-117 and NWL-154 with 20 nM of active site-titrated Casp6 in SB at room temperature for 5 minutes. Then, 10 μM Ac-VEID-AFC was added and fluorescence measured for 20 min at 37 °C as described above. New World Laboratories performed the IC50 determination for NWL inhibitors dissolved in dimethyl sulfoxide (DMSO) against recombinant Casp1-10 using the Caspase Inhibitor Drug Screening Kits (BioVision, San Francisco, CA) following the manufacturer’s instructions and the preferred substrates for the caspases (Caspase-1: WAD-AFC, Caspase-2: VDVAD-AFC, Caspase-3: DEVD-AFC, Caspase-4: LEVD-AFC, Caspase-5: WEHD-AFC, Casp6:VEID-AFC, Caspase-7: DEVD-AFC, Caspase-8: IETD-AFC, Caspase-9: LEHD-AFC, Caspase-10: AEVD-AFC). In transfected HCT116 cells, 0 to 100 μM NWL inhibitors were added in the culture media and left on the cells for 2 h. Cells were washed once with 1 mL ice-cold PBS, incubated on ice for 5 min with 200 μL cell lysis buffer (CLB) (50 mM HEPES, 0.1% CHAPS, 0.1 mM EDTA), and gently scraped off. Protein concentrations were determined by Bradford assay (BioRad, Mississauga, ON, CA) by measuring the absorbance at 595 nm using the BioTek Synergy H4 plate reader. […]

[1] = test system: APPWT-transfected primary human CNS neurons; experiment: Neuritic beading/degeneration in APPWT-transfected primary human neurons; type: cell-based; settings: for neuritic beading: APPWT/EGFP co-expression, 48 h; for neuritic beading / percentage of beaded neurons, fold of EGFP-alone: NWL 100 μM, Z-VEID-fmk 5 μM; for percentage of beaded neurons, fold of EGFP-alone: live imaging 72 h, APPWT vehicle 1.52, EGFP-alone 1.00, mean ± SEM
Description: Immunofluorescence on human neuron cultures: Primary human neurons were pre-treated 2 h and serum-deprived in the presence of 100 μM NWL-117, 100 μM NWL-154, or 5 μM Z-VEID-fmk (Biomol, Plymouth meeting, PA, USA) for 24 h. Following treatment, human neurons were washed once with warm PBS, fixed for 20 min at room temperature with 4% paraformaldehyde (Sigma, Oakville, ON, CA)/4% sucrose (BioRad, Mississauga, ON, CA) for TubΔCasp6 or 2% formaldehyde (Thermo Fisher Scientific, Waltham, MA, USA)/0.2% glutaraldehyde (Sigma, Oakville, ON, CA) for pBudEGFP or pBudEGFP/APP^WT-transfected neurons, incubated in permeabilization buffer (0.1% Triton X-100, 0.1 sodium citrate) for 1 min on ice, washed with PBS, blocked for 20 min at room temperature with 10% goat serum (Sigma, Oakville, ON, CA), and incubated with primary antibodies diluted in 10% goat serum in PBS overnight at 4 °C in a humid chamber. The glass coverslips were washed with PBS, and incubated with goat anti-rabbit secondary antibody coupled to Alexa 488 (Molecular Probes, Eugene, OR, USA) or Cy3 (GE Healthcare Life Sciences, Baie D’Urfe, QC, CA) and Hoechst 33342 (ImmunoChemistry, Bloomington, MN, USA) at 1 μg/mL for 2 h at room temperature. The coverslips were washed with PBS and rinsed in Milli-Q water before mounting in fluoromount (Dako, Burlington, ON, CA). Images were acquired by fluorescence microscopy and quantified using the ImageJ software (NIH, Bethesda, MD, USA) for TubΔCasp6 and manually counted for transfected EGFP(+)-neurons. Time lapse-imaging by live fluorescence microscopy: Primary human neurons were transfected with gold beads coated with pBudEGFP or pBudEGFP/APP^WT using a Helios Gene gun (BioRad, Mississauga, ON, CA). Briefly, cells were pre-treated with 100 μM NWL inhibitors or 5 μM Z-VEID-fmk for 2 h. The media was removed and the neurons were shot at 100 psi. The media was quickly replaced with the inhibitors present. The plasmid was expressed for 16 h before setting up the fluorescence microscope (Nikon Eclipse Ti) to acquire 20 images per condition every hour for 72 h at 37 °C with 5% CO2. The images were analyzed by counting the total number of neurons (50–100 neurons per condition per independent experiment), and the number of beaded, swollen soma, and healthy neurons. In addition, the time at which cells beaded was noted. Phase contrast microscopy: HCT116 cells, plated at a density of 1×10^5 cells/well and human neurons, plated at a density of 6×10^6 cells/well on poly-L-lysine were treated with PBS, 100 μM NWL-117, 100 μM NWL-154, or 2 μM staurosporine (Biomol, Plymouth meeting, PA, USA) for 24 h. Images were acquired with the Nikon Eclipse Ti microscope and the NIS-Elements (Version 3.10) software.

[2] = APPWT-transfected neurons, live imaging, 100 μM

T1 sequence (P51878 137-434): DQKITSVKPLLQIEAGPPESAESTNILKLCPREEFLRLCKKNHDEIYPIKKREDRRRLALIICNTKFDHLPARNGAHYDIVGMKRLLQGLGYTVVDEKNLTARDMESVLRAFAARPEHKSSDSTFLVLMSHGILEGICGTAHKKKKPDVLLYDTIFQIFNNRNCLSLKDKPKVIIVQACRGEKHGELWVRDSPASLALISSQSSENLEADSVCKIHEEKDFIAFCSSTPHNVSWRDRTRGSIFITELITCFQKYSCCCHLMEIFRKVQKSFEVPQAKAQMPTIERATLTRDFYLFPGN

In the case of `CCC(C)[C@H](NC(=O)[C@H](CCC(=O)O)NC(=O)[C@@H](NC(=O)OCc1ccccc1)C(C)C)C(=O)N[C@H](/C=C/S(C)(=O)=O)CC(=O)O` (some centres unmarked) [NWL-117], the IC50 (recombinant Caspase-5) is reported as 19.5 µM, the neuronal soma rounding [1, 2] is reported as “inhibited” and the “neuronal survival (neurons with homogeneously distributed EGFP)” value [1, 2] is reported as “significantly increases neuronal survival”. For the same compound, the neuritic beading [1] was “prevented neuritic beading” and the “percentage of beaded neurons, fold of EGFP-alone” value [1] was 0.84 fold.

`CCC(C)[C@H](NC(=O)[C@H](CCC(=O)O)NC(=O)[C@@H](NC(=O)OCc1ccccc1)C(C)C)C(=O)N[C@H](/C=C(\Cl)S(C)(=O)=O)CC(=O)O` (some centres unmarked) [NWL-154] was tested, and the IC50 (recombinant Caspase-5) was 4.19 µM, the neuritic beading [1] was “prevented neuritic beading” and the “percentage of beaded neurons, fold of EGFP-alone” value [1] was 1.07 fold.

— paper PMC5329948, “Caspase vinyl sulfone small molecule inhibitors prevent axonal degeneration in human neurons and reverse cognitive impairment in Caspase-6-overexpressing mice” (Molecular Neurodegeneration, 2017)
